Measurements as given in the supplement of paper PMC12420376.
± gives the uncertainty stated by the source.

System: KURAMOCHI
Assay: cancer cell viability relative to untreated control; higher = less cytotoxic
Settings: 72 h
Procedure: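 KURAMOCHI or OVCAR8 cells were grown in monoculture or in co-culture with WI38 or patient-derived 030F fibroblasts and treated for 72 h with a dose matrix of carboplatin combined with birinapant or vorinostat (doses in nM). Cancer cell viability was measured by CK8/18 immunofluorescence imaging and expressed as % of untreated control, given as mean with SD.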

O=C(O)C1(C(=O)O)CCC1.[NH2-].[NH2-].[Pt+2] [Carboplatin] + CC[C@H](NC(=O)[C@H](C)NC)C(=O)N1C[C@@H](O)C[C@H]1Cc1c(-c2[nH]c3cc(F)ccc3c2C[C@@H]2C[C@H](O)CN2C(=O)[C@H](CC)NC(=O)[C@H](C)NC)[nH]c2cc(F)ccc12 [Birinapant]
cancer cell viability [%]
Settings	partner drug concentration 0 nM	partner drug concentration 0.1 nM	partner drug concentration 1 nM	partner drug concentration 10 nM	partner drug concentration 100 nM	partner drug concentration 1000 nM
carboplatin concentration 10 nM, co-cultured fibroblast: 030F	95.1 ± 4.9	97.5 ± 8.3	93.4 ± 9.6	82.9 ± 11	81.5 ± 6.7	84.3 ± 10
carboplatin concentration 10 nM, co-cultured fibroblast: WI38	93.7 ± 9.7	94.4 ± 8.1	87.7 ± 13	85 ± 5.5	80.4 ± 7.3	77.7 ± 11
carboplatin concentration 10 nM, co-cultured fibroblast: none (monoculture)	101 ± 18	93.7 ± 18	90.3 ± 14	79.5 ± 11	73.8 ± 10	67.6 ± 13
carboplatin concentration 100 nM, co-cultured fibroblast: 030F	95.5 ± 11	92 ± 4.9	94.7 ± 5.6	95.6 ± 13	84.5 ± 6.8	85.6 ± 5.8
carboplatin concentration 100 nM, co-cultured fibroblast: WI38	91.6 ± 15	88.5 ± 9.4	90.5 ± 4.1	98.4 ± 11	86.1 ± 10	82.2 ± 6.1
carboplatin concentration 100 nM, co-cultured fibroblast: none (monoculture)	95.7 ± 20	89.2 ± 12	91.7 ± 11	97.3 ± 18	66.7 ± 13	67.3 ± 8.5
carboplatin concentration 1000 nM, co-cultured fibroblast: 030F	91.6 ± 11	92.2 ± 12	100 ± 4.1	91.7 ± 15	82.9 ± 10	87.1 ± 12
carboplatin concentration 1000 nM, co-cultured fibroblast: WI38	94.4 ± 11	99.2 ± 6.3	98.2 ± 13	97.8 ± 15	88.5 ± 10	77.5 ± 11
carboplatin concentration 1000 nM, co-cultured fibroblast: none (monoculture)	102 ± 21	95 ± 13	90.7 ± 10	90.3 ± 9.4	74.3 ± 12	61 ± 12
carboplatin concentration 1e+05 nM, co-cultured fibroblast: 030F	44.4 ± 13	50.4 ± 8.6	60.3 ± 15	52.9 ± 11	40.4 ± 9.8	54.9 ± 8.4
carboplatin concentration 1e+05 nM, co-cultured fibroblast: WI38	31.1 ± 12	41.9 ± 9	48 ± 18	43.7 ± 10	36.4 ± 10	44.2 ± 10
carboplatin concentration 1e+05 nM, co-cultured fibroblast: none (monoculture)	26.6 ± 5.7	33.6 ± 4.6	38.4 ± 6.9	37.9 ± 12	18.6 ± 8.4	24.4 ± 9.1
carboplatin concentration 10000 nM, co-cultured fibroblast: 030F	51.7 ± 15	80.8 ± 4.5	88.2 ± 9.3	88.8 ± 8.8	72.4 ± 14	71.7 ± 7.3
carboplatin concentration 10000 nM, co-cultured fibroblast: WI38	40.7 ± 4.7	80 ± 16	83.2 ± 7.4	91.4 ± 14	74.1 ± 10	69.9 ± 5
carboplatin concentration 10000 nM, co-cultured fibroblast: none (monoculture)	23.9 ± 5.7	95.4 ± 14	72.3 ± 9.8	84.6 ± 27	57.4 ± 8.2	51.8 ± 7

O=C(O)C1(C(=O)O)CCC1.[NH2-].[NH2-].[Pt+2] [Carboplatin] + O=C(CCCCCCC(=O)Nc1ccccc1)NO [Vorinostat]
cancer cell viability [%]
Settings	partner drug concentration 0 nM	partner drug concentration 1 nM	partner drug concentration 10 nM	partner drug concentration 100 nM	partner drug concentration 1000 nM	partner drug concentration 10000 nM
carboplatin concentration 10 nM, co-cultured fibroblast: 030F	95.1 ± 4.9	107 ± 15	95.5 ± 14	77.5 ± 16	36.9 ± 25	4.67 ± 3.6
carboplatin concentration 10 nM, co-cultured fibroblast: WI38	93.7 ± 9.7	107 ± 28	97.6 ± 18	70 ± 31	26.5 ± 20	5.05 ± 4.4
carboplatin concentration 10 nM, co-cultured fibroblast: none (monoculture)	101 ± 18	111 ± 22	101 ± 23	67.6 ± 34	31.1 ± 22	-0.479 ± 5.7
carboplatin concentration 100 nM, co-cultured fibroblast: 030F	95.5 ± 11	106 ± 20	102 ± 7.8	75.9 ± 19	28.8 ± 12	3.53 ± 2.5
carboplatin concentration 100 nM, co-cultured fibroblast: WI38	91.6 ± 15	101 ± 17	91.2 ± 13	63.2 ± 28	21 ± 13	5.14 ± 3.4
carboplatin concentration 100 nM, co-cultured fibroblast: none (monoculture)	95.7 ± 20	101 ± 17	92.7 ± 9.7	63.3 ± 26	24.3 ± 22	0.0805 ± 4.8
carboplatin concentration 1000 nM, co-cultured fibroblast: 030F	91.6 ± 11	85.7 ± 18	89.1 ± 17	58.1 ± 13	31.1 ± 9.2	6.6 ± 4.2
carboplatin concentration 1000 nM, co-cultured fibroblast: WI38	94.4 ± 11	88.8 ± 20	88.6 ± 15	52 ± 16	18.7 ± 9.2	5.75 ± 5
carboplatin concentration 1000 nM, co-cultured fibroblast: none (monoculture)	102 ± 21	103 ± 19	91.6 ± 15	54.2 ± 12	20.8 ± 15	1.21 ± 6.6
carboplatin concentration 1e+05 nM, co-cultured fibroblast: 030F	44.4 ± 13	47.7 ± 24	47.7 ± 13	38 ± 9.5	39 ± 15	1.97 ± 3.9
carboplatin concentration 1e+05 nM, co-cultured fibroblast: WI38	31.1 ± 12	39.3 ± 19	39.4 ± 20	30.1 ± 6.7	20.6 ± 3.4	0.366 ± 0.77
carboplatin concentration 1e+05 nM, co-cultured fibroblast: none (monoculture)	26.6 ± 5.7	37.6 ± 18	37 ± 14	22.8 ± 6.3	21.3 ± 5.6	-3.77 ± 2.5
carboplatin concentration 10000 nM, co-cultured fibroblast: 030F	51.7 ± 15	72.2 ± 30	71.1 ± 29	55.5 ± 14	45 ± 14	3.59 ± 2.8
carboplatin concentration 10000 nM, co-cultured fibroblast: WI38	40.7 ± 4.7	72 ± 28	68 ± 23	46.1 ± 11	28.8 ± 14	4.43 ± 3.5
carboplatin concentration 10000 nM, co-cultured fibroblast: none (monoculture)	23.9 ± 5.7	80.8 ± 36	62.8 ± 25	49.1 ± 14	27.5 ± 14	-0.104 ± 4.2
